# Measurements reported in patent US7863304B2, “Analogs of glycyl-prolyl-glutamate” (priority 2001, dated 2011).
# Where a SMILES comes first, the peptide text is derived from it. [ ]: non-standard residue; d: D form. ξ: configuration not given here. Hyp = O=C(O)[C@@H]1C[C@@H](O)CN1; Nva = CCC[C@H](N)C(=O)O; ξPip = O=C(O)C1CCCCN1; Aib = CC(C)(N)C(=O)O
# What was measured:
# [1] = test system: striatal cells; test: Striatal cell culture, 30 nM okadaic acid injury, MTT viability; assay type: cell-based, Wistar rats; details: for neuroprotection against okadaic acid induced loss of cell viability: okadaic acid (30 nM), 24 h, MTT, striatal cell culture (FIGS. 3, 4, 6)
# Excerpt: (§1) Two pregnant Wistar rats (gestational day 18) underwent Caesarean section according to approved procedures from the Animal Ethics Committee of the University of Auckland. The Wistar dams were anaesthetised in a CO2-enriched atmosphere and sacrificed by subsequent spinal cord dislocation. The embryos were removed from their embryonic sacs and decapitated. After incisions into the skull with fine scissors, the embryonic brain was removed with a fine spatula. Striatal tissue was separated from neocortical tissue under the microscope and placed into serum-free DMEM/F-12 medium supplemented with penicillin/streptomycin (100 u/mL). Tissue underwent 15 trituration steps using a P1000 pipettor to obtain dissociated cells, which were centrifuged for 5 min at 250 G (4° C.) and the supernatant was discarded. Cells were re-suspended into 1 mL DMEM/F-12 medium and were kept on ice. Cell suspension (400,000 cells/cm2) was applied to 0.1 mg/mL poly-L-lysine pre-coated 96-well plates (3 h at 37° C.) and the volume was increased up to 100 μL with DMEM/F-12+5% FBS. Cells were cultivated at 37° C. in 100% humidity in a 5% CO2 atmosphere. After 24 h the medium was changed to serum-free Neurobasal/B27. Cell medium was changed every 3 days and maintained until 8 days in vitro (DWV).
# (§2) Striatal cells were injured after 2, 3, 7 or 8 days in vitro. The injury paradigm involved 30 nM okadaic acid treatment with simultaneous administration of a GPE analog of this invention for 24 h. 1 μL of 3 μM okadaic acid stock solution together with 1 μL of GPE analog dissolved in PBS (vehicle received 2 μL of PBS) were incubated for 24 h with the striatal cells. Subsequently, 20 μL MTT (5 mg/mL in PBS) was added for 4 h. The reaction was terminated by addition of 100 μL 4% sodium dodecyl sulfate (SDS) solution. After 16-24 h incubation time, photometric extinction values are read at 595 nm. The difference between the vehicle and the okadaic acid injury condition was calculated. This value was set as the theoretical 100% recovery value. Measured values for the tested compounds were expressed in percentage of the 100% value. The unpaired Student's t-test was used for statistical analysis.
# [2] = test system: cortical cell culture; test: Rat cortical dissociated cell culture, okadaic acid injury, MTT viability; details: 100 nM okadaic acid
# Protocol: (§3) Embryonic E18/19 wistar rats were used for the generation of dissociated cortical cell cultures. The rear portion (occipital cortex-area 17/18 of the visual cortex) of the cortical plate is used for the generation of the cultures. Cells were grown for 3-10 DIV in one part of serum-free medium and one part of rat cortex-derived cultivated astrocytic-conditioned medium (ACM).
# (§4) 96-well tissue culture plates were coated with 0.2 mg/ml poly-L-lysine followed by 2 μg/ml laminin. Subsequently 60 μl of ACM were added per well and plate was stored at 37° C. until plating of cortical cells.
# (§5) Whole cortices of P1/2 wistar pups were collected into separate tubes containing 4 ml DMEM-1 cortex per tube. The tissues were triturated a few times with a 5 ml sterile pipette to break up them up into smaller pieces. Each tube was poured separately into a reagent reservoir and triturated once with a 5 ml syringe and 18 gauge drawing needle. The mixture was then filtered through a 100 μm cell strainer into a 50 ml centrifuge tube. The strainer was washed with 5 ml DMEM. The cell solution was extended with DMEM to 50 ml of volume. The solution was then centrifuged for 5mins at 350g at RT. The cells were resuspended in 40 ml of DMEM+10% FBS. The cells were then reconstituted into a 75 cm^2 cell flask and incubated at 37° C./10% CO2/100% humidity in […]. […] The medium was replaced after 1 day with fresh DMEM+10% FBS. The cell growth was monitored and media+FBS replaced twice weekly until the cells were confluent (˜10-14 days). Once the confluency reached, the cells were washed once with 20 ml sterile PBS. Cells were incubated for 3 days in 30 ml Neurobasal medium+B27 supplement to maintain cells under serum-free conditions. Cell supernatant was then filter through a 0.22 μm sterile filter and frozen in aliquots at −80° C.
# (§6) The tissues were stored in PBS+glucose solution on ice until all dissection was completed. Tissue material was centrifuged at 350g for 5 mins at RT. The supernatant was removed and cell pellets were incubated in 5 ml trypsin/EDTA solution (Invitrogen) for 8 mins at 37° C. Proteolysis was stopped by addition of one part of DMEM+10% FBS. Subsequently, the tissued were centrifuged at 350g for 5 mins at RT. The pellet was collected, washed (centrifugation) twice in NB/B27 medium (Invitrogen) and resuspended in 1 ml NB/B27 medium. Tissue was transferred into a petri dish and triturated twice with a glass pasteur pipette attached to a pipette to break up large pieces of tissue. The tissue was then triturated twice using a 1 ml syringe and 22 gauge needle and passed through a 100 μm cell strainer to remove remaining large tissue pieces. The cells were washed with 1 ml NB/B27. The number of viable neurons was counted and the percentage of cell viability determined. […] The cortical cells were incubated at 37° C./10% CO2/100% humidity.
# (§7) In order to induce neuronal injury the phosphatase 1/2A antagonist okadaic acid is added for 24 hrs. Simultaneously, an analog of GPE of this invention was administered. After 24 hrs metabolic activity was measured by addition of MTT for 2-4 hrs followed by addition of SDS-solution and photometric end point measurement at 595 nm.
# (§8) Student's unpaired t-test is used for testing for statistical significance when comparing uninjured controls with the injured neuronal rescue agent containing conditions.
# [3] = test system: N-methyl-D-aspartate (NMDA) receptor; details: background statement; cited from earlier work
# [4] = target: IGF-1 receptor (Homo sapiens, UniProt P08069); details: background statement; cited from earlier work
# [5] = Rat cortical dissociated cell culture, okadaic acid injury, MTT viability; details: Wistar, rat
# Protocol: as §3, §4, §5, §6, §7, §8
# [6] = Striatal cell culture, 30 nM okadaic acid injury, MTT viability; assay type: cell-based, Wistar rats; details: Wistar, rat; okadaic acid alone, other studies FIGS. 2-6 (striatal and cortical cultures); read-out: decrease in numbers of viable cells
# Excerpt: as §1, §2
# [7] = test system: cerebellar cells; test: Cerebellar microexplant culture, 3-NP/glutamate injury, count of cells with neurites; assay type: cell-based, Wistar rats; details: toxin alone, cerebellar cell culture (FIG. 7)
# Protocol: Postnatal day 3, 4 or 8 Wistar rats were used for the study. The rats were sacrificed and placed in ice for 1 minute, decapitated and the cerebellum removed and placed on ice. Cerebellum tissue was placed in 1 ml of 0.65% glucose-supplemented PBS (10 μl 65% stock D (+)glucose/1 ml PBS) in a large Petri dish, chopped up into smaller sections and triturated with a 1 ml insulin syringe via a 23 gauge (0.4 mm) needle, and then squirted back into the glucose solution in the Petri dish. The tissue was sieved through (125 µm pore size) and centrifuged (2 minutes at 60×g) twice to exchange the medium into serum-free BSA-supplemented START V medium (Biochrom, Germany). […]
# After explants were exposed to a GPE analog of this invention for the study period, cells were then rinsed in PBS and then fixed in increasing concentrations of paraformaldehyde (500 μl of 0.4% PFA was applied; then 1.2% PFA; then 3% PFA and finally 4% PFA (each fixation step: 2-3 minutes). Finally, the microexplants were rinsed in PBS. Neurons in the explants were then evaluated for morphology (presence of neurites) and counted as live cells per microscopic field. Four fields displaying highest cell density were counted per cover slip and the data presented as mean ±standard error of the mean (SEM); n=4 each. Statistical significance was evaluated by using the non-paired Student's t-test.
# [8] = 24 hrs, MTT, cortical cell culture (FIG. 1)
# Chain of IGF-1 receptor (P08069 31-736 limits assumed): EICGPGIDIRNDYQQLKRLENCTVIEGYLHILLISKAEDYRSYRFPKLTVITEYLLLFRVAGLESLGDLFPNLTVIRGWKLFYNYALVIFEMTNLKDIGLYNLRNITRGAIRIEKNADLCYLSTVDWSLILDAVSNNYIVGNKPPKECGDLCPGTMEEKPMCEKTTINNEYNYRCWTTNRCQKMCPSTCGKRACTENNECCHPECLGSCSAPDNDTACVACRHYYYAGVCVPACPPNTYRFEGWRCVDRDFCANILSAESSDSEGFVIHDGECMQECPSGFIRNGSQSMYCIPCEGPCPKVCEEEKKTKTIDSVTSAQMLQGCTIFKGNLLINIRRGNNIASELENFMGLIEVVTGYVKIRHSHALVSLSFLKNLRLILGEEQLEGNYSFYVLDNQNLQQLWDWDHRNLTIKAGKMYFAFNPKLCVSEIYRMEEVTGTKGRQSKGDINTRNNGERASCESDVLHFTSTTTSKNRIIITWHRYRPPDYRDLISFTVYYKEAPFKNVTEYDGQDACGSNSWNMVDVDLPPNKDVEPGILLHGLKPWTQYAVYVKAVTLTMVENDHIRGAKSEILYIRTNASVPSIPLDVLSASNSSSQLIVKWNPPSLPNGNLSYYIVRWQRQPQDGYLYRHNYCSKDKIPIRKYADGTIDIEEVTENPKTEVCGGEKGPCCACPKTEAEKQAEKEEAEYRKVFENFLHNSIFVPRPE
# Chain of IGF-1 receptor (P08069 741-1367 partner limits assumed): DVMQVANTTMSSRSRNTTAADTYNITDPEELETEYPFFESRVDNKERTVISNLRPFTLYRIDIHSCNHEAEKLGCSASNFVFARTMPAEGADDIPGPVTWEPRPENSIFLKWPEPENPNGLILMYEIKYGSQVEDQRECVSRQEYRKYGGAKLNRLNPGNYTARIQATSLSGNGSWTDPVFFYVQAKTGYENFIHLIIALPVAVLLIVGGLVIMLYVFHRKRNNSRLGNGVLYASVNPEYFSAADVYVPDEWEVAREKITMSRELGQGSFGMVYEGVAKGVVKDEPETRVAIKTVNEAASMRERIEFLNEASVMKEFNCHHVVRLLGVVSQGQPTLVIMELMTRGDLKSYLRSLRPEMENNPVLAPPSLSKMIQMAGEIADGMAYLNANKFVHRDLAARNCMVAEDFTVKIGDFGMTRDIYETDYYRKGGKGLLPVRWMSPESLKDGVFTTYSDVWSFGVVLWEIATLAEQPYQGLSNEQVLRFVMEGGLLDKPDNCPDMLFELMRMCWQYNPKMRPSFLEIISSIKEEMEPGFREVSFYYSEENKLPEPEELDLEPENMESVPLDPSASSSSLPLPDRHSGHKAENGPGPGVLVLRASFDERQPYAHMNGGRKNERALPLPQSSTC
smiles,measurement,setting,value
"CC(C)(N)C(=O)N1CCC[C@H]1C(=O)N[C@@H](CCC(=O)O)C(=O)O [analog 64, Aminoisobutryl-L-prolyl-L-glutamic acid] (H-[Aib]-Pro-Glu-OH)",protection from the loss of neural cell viability induced by okadaic acid,"[1]; at 1 mM, 30 nM okadaic acid, striatal (FIG. 4)",complete protection
same,neuroprotective efficacy compared with GPE,"[1]; concentration range 100 μM to 1 mM, 30 nM okadaic acid, striatal (FIG. 4)",more effective than GPE
same,neuroprotection against okadaic acid induced loss of cell viability,[1],neuroprotective
"CC1(C)SCN(C(=O)CN)[C@@H]1C(=O)N[C@@H](CCC(=O)O)C(=O)O [analog 49, Glycyl-L-thia-5,5-dimethylprolyl-L-glutamic acid]",neuroprotection against okadaic acid induced loss of cell viability,[2]; [8],neuroprotective
same,protection against loss of neural cell viability caused by okadaic acid,"[2]; concentration range 10 nM to 10 μM, cortical cell culture (FIG. 1)",100%
"NCC(=O)N1CCC[C@H]1C(=O)N[C@@H](CCC(=O)O)C(=O)O [GPE, Glycyl-L-Prolyl-L-Glutamate]",neuroprotection against okadaic acid induced loss of cell viability,[2]; [8],reversed the okadaic acid induced loss of cell viability
same,binding affinity to NMDA receptor,[3],low affinity
same,binding to IGF-1 receptor,[4],does not bind
"C=C1[C@@H](O)[C@@H]2O[C@]3(CC[C@H](/C=C/[C@@H](C)[C@@H]4CC(C)=C[C@@]5(O[C@H](C[C@@](C)(O)C(=O)O)CC[C@H]5O)O4)O3)CC[C@H]2O[C@@H]1[C@@H](O)C[C@H](C)[C@H]1O[C@@]2(CCCCO2)CC[C@H]1C [okadaic acid, reference compound]",cytotoxicity at 24 h,[5],~30%
same,cytotoxicity at 24 h,[6],10 to 50%
same,decrease in the number of cells having neurites,[7],over 80%
"NCC(=O)N1C[C@H](O)C[C@H]1C(=O)N[C@@H](CCC(=O)O)C(=O)O [analog 60, Glycyl-trans-4-hydroxy-L-prolyl-L-glutamic acid] (H-Gly-[Hyp]-Glu-OH)",statistical significance of neuroprotective effect,"[1]; at concentrations of 100 nM and 100 μM and 1 mM, 30 nM okadaic acid, striatal (FIG. 3)",statistically significant effects
same,neuroprotection against okadaic acid induced loss of cell viability,[1],neuroprorotective
"NCC(=O)N1CCCCC1C(=O)N[C@@H](CCC(=O)O)C(=O)O (stereo partly drawn) [analog 66, Glycyl-D,L-pipecolinyl-L-glutamic Acid] (H-Gly-[ξPip]-Glu-OH)",statistical significance of neuroprotective effect,"[1]; at concentrations of 100 nM, 100 mM and 1 mM, okadaic acid, striatal (FIG. 6)",statistically significant effects
same,neuroprotection against okadaic acid induced loss of cell viability,[1],neuroprotective
"CCC[C@H](NC(=O)[C@@H]1CCCN1C(=O)CN)C(=O)O [analog 65, Glycyl-L-prolyl-L-Norvaline] (H-Gly-Pro-[Nva]-OH)",protection against loss of cell viability induced by okadaic acid,"[2]; at nearly every concentration tested (10 nM to 1 mM), cortical cell culture (FIG. 5)",100%
same,neuroprotection against okadaic acid induced loss of cell viability,"[2]; broad range of concentrations, 10 nM to 1 mM, cortical cell culture (FIG. 5)",neuroprotective
